This is an account of results in patent publication US20080039453A1, “Enantiomerically pure R-etifoxine, pharmaceutical compositions thereof and methods of their use” (priority 2006, published 2008).

The subject of experiment [1] is human GABAA receptor subunits (α1β1-3γ2L GABAA receptors). The experiment can be described thus: Modulation of GABA-evoked currents in Xenopus oocytes (2-electrode clamp), GABA subunit selectivity. Format: cell-based. As to conditions: for GABA subunit selectivity: modulation of GABA EC10-evoked currents in Xenopus oocytes expressing α1β1-3γ2L, FIGS. 4A and 4B. The method, then:
GABA subunit selectivity of etifoxine enantiomers was measured based on their ability to modulate the GABA-evoked currents in Xenopus oocytes.
Receptor mRNA preparation: cDNA clones encoding human GABAA receptor subunits were obtained from commercial sources. mRNA was prepared using conventional techniques with commercially-available “mMessage machine” kits (Ambion). Individual mRNAs (˜1 μg/μL) were stored in aliquots at −80° C.
mRNA injections into Xenopus oocytes: Preparation and micro-injection of oocytes were performed as reported in detail previously (see, Whittemore et al., 1996, Mol Pharmacol 50: 1364-1375). Individual oocytes were injected with 5-50 ng of mRNA at 5:1:1 (GABA). For example, individual oocytes were injected with a 5:1:1 mixture of α1, β1-3, and γ2L (˜5-50 ng of each subunit per cell) to produce expression of α1β1-3γ2L GABAA receptors. Following injections, oocytes were maintained at 16-17° C. in Barth's medium containing (in mM): NaCl, 88; KCl, 1; CaCl2, 0.41; Ca(NO3)2, 0.33; MgSO4, 0.82; NaHCO3, 2.4; HEPES 5; pH=7.4, with 0.1 mg/ml gentamycin sulfate.
Oocyte Electrophysiological recordings: Individual oocytes were placed on a nylon mesh in a 35 mm dish, perfused with frog Ringer (see, Whittemore et al., supra), and voltage clamped at a holding potential of −70 mV. In some cases, simple voltage steps were made to test voltage-dependence. Oocytes were perfused with fresh Ringer or exposed to GABA ±modulators using a custom-made gravity-driven perfusion system consisting of a linear array of 3 capillary tubes. The concentration of GABA used to evoke control currents was adjusted for each individual oocyte to be 10% of the maximal current (EC10) measured in that cell. The concentration of GABA required to evoke EC10 ‘control’ currents varied between ˜2 and 12 μM. […] Data are expressed as % of control currents (% modulation=100*[(modulated current/GABA control current)−1].

In experiment [2] the test system is mouse formalin pain model. Put plainly: Mouse formalin pain model (late phase licking). Format: in vivo. To be noted: male NSA mice, 60 mg/kg i.p., 30 minutes prior to formalin; FIG. 5. The method, then:
The analgesic effect of test compounds was assessed in a mouse formalin pain model (Hole et al., 1993, Pain 53:247-254). Male NSA mice weighing between 27 and 30 g were housed with access to food and water ad libitum until the test date. On the day of testing, they were given a period of 1 h to adjust to the test chamber. Test compounds or vehicle control (75% polyethylene glycol in 5% dextrose+water) were administered i.p. at 30 minutes prior to the administration of formalin. A solution of 20 μl of 2.5% formalin was then injected subcutaneously into the dorsal side of the hind paw of the test mouse. Immediately following formalin injection, the mice were observed over the next 50 min and the time spent licking the injected hind paw was recorded. The observation time was broken down into 5 minute “bins”, with 10 bins in total. The first 5-min bin is the early phase, considered to be reflective of acute pain. Bins three to ten make up the late phase, considered a measure of chronic inflammatory pain. The results for the late phase are expressed as the averaged mean time (in seconds) that mice spent licking in a 5-min period.
Dose-response relationship was conducted in the range of 3 to 60 mg/kg. Statistical differences in response were determined by one-way analysis of variance with the Dunnett's post-hoc test by using the Prism3 statistical software (GraphPad, Inc., San Diego, Calif.).

For the compound `CCNC1=Nc2ccc(Cl)cc2C(C)(c2ccccc2)O1` (single isomer, unassigned) [S-etifoxine, 6-chloro-2-(ethylamino)-4-methyl-4-phenyl-4H-3,1-benzoxazine], in experiment [1], the GABA subunit selectivity entry is given as “shows selectivity for GABA receptor comprising β subunit”. Further, the “selectivity for β2 subunit versus β1 subunit” value in experiment [1] (modulation of GABA EC10-evoked currents in Xenopus oocytes, FIG. 4B) was “more selective for β2 subunit than β1 subunit”.
Take `CCNC1=Nc2ccc(Cl)cc2C(C)(c2ccccc2)O1` (single isomer, unassigned) [R-etifoxine, 6-chloro-2-(ethylamino)-4-methyl-4-phenyl-4H-3,1-benzoxazine]: the GABA subunit selectivity result in experiment [1] was “little or no GABA subunit selectivity”. Moreover, the “analgesic effect in the formalin test (late phase licking)” value in experiment [2] is “active”.
